Values of other authors, collected in patent publication US20250325473A1, “COLLAGEN-IMPREGNATED DEVICES AND METHODS FOR TREATMENT OF CANCER” (COLLAGEN MATRIX, INC., priority 2022, published 2025).
Square brackets hold non-standard residues; d marks the D form. Ends that are not written are not given here. Hyp = O=C(O)[C@@H]1C[C@@H](O)CN1

Key:
Parameters in all cases: key: A plus sign (+) indicates a response similar in peptides II-22, III-23, or GPS-GFO (control); a minus sign (−) Indicates less than 20% of control; +/−: +/ − indicates 20-80% of control
DDR2-Fc or DDR2-Fc2 = conditions: binding to DDR2-Fc or DDR2-Fc2, response relative to control peptides II-22, III-23 or GPS-GFO; includes data from Konitsiotis et al. 2008
His-DDR2 or DS2-Fc = conditions: binding to His-DDR2 or DS2-Fc, response relative to control peptides II-22, III-23 or GPS-GFO; guest sequences flanked by (GPP)
DDR1-Fc or DDR1-Fc2 = conditions: binding to DDR1-Fc or DDR1-Fc2, response relative to control peptides II-22, III-23 or GPS-GFO; guest sequences flanked by (GPP)
Sequence of DDR1-Fc or DDR1-Fc2 (Q08345 31-185 limits assumed): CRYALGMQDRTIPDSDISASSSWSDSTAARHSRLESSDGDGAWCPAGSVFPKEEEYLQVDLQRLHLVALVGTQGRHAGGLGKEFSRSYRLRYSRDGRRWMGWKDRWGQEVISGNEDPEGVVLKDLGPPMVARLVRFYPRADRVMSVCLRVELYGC

Sequence of His-DDR2 or DS2-Fc (Q16832 30-185 limits assumed): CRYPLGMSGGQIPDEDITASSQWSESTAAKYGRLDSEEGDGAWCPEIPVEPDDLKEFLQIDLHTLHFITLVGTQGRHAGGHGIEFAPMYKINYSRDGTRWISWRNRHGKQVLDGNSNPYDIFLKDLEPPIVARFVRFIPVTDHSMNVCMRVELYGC
Sequence of DDR2-Fc or DDR2-Fc2 (Q16832 30-185 limits assumed): as above

Substance | DDR2 binding (DDR2-Fc or DDR2-Fc2) | DDR2 binding (His-DDR2 or DS2-Fc) | DDR1 binding (DDR1-Fc or DDR1-Fc2)
(GAP) -GPRGQOGVMGFO-(GAP) (GAPGAPGAPGAPGAPGPRGQ[Hyp]GVMGF[Hyp]GAPGAPGAPGAPGAP; not fully specified) [GAP-GPR-GFO, non-helical peptide flanked by (GAP) instead of (GPP)] | − (a minus sign (−) indicates less than 10% of control) | +/− (+/ − indicates 20-80% of control) | − (a minus sign (−) indicates less than 10% of control)
GAKGSAGAOGIAGAOGFOGPRGPOGPQ (GAKGSAGA[Hyp]GIAGA[Hyp]GF[Hyp]GPRGP[Hyp]GPQ; not fully specified) [II- ? 3, label partly illegible] | + |  | − (a minus sign (−) indicates less than 10% of control)
GARGAQGPOGATGFOGAAGRVGPOGSN (GARGAQGP[Hyp]GATGF[Hyp]GAAGRVGP[Hyp]GSN; not fully specified) [II- ? 9, label partly illegible] | +/− ((+/− indicates 30-80% of control) |  | +/− ((+/− indicates 30-80% of control)
GARGEOGNIGFO (GARGE[Hyp]GNIGF[Hyp]; not fully specified) [CI-alpha2] | (+)/− ((+)/− indicates 20-30% of control) | − (a minus sign (−) Indicates less than 20% of control) | +/− ((+/− indicates 30-80% of control)
GARGQAGVMGFO (GARGQAGVMGF[Hyp]; not fully specified) [CI-alpha1] | + | + | +
GARGQOGVMGFO (GARGQ[Hyp]GVMGF[Hyp]; not fully specified) [GAR-GFO] |  |  | +
GASGDRGPOGPVGPOGLTGPAGEOGRE [II-46] | − (a minus sign (−) indicates less than 10% of control) |  | +/− ((+/− indicates 30-80% of control)
GFOGER [GPOGER] | − (a minus sign (−) indicates less than 10% of control) | − (a minus sign (−) Indicates less than 20% of control) | − (a minus sign (−) indicates less than 10% of control)
GFOGPK (GF[Hyp]GPK; not fully specified) | − (a minus sign (−) indicates less than 10% of control) | − (a minus sign (−) Indicates less than 20% of control) | − (a minus sign (−) indicates less than 10% of control)
GPOGPQGVKGERGSDGGDGAAGFOGAR [III- ? 9] | + |  | − (a minus sign (−) indicates less than 10% of control)
GPRGQOGVMGFO [GPR-GFO] | + | + | +
GPRGQOGVMGFOGPK (GPRGQ[Hyp]GVMGF[Hyp]GPK; not fully specified) [GPR-GPK] | + | − (a minus sign (−) Indicates less than 20% of control) | (+)/− ((+)/− indicates 20-30% of control)
GPSGARGQOGVMGFO (GPSGARGQ[Hyp]GVMGF[Hyp]; not fully specified) [GPS-GFO-5A] | + | − (a minus sign (−) Indicates less than 20% of control) | +
GPSGPAGQOGVMGFO (GPSGPAGQ[Hyp]GVMGF[Hyp]; not fully specified) [GPS-GFO-6A] | +/− ((+/− indicates 30-80% of control) | + | +/− ((+/− indicates 30-80% of control)
GPSGPRGAOGVMGFO (GPSGPRGA[Hyp]GVMGF[Hyp]; not fully specified) [GPS-GFO-8A] | + | +/− (+/ − indicates 20-80% of control) | +
GPSGPRGQAGVMGFO (GPSGPRGQAGVMGF[Hyp]; not fully specified) [GPS-GFO-9A] | + | + | +
GPSGPRGQO (GPSGPRGQ[Hyp]; not fully specified) [GPS-GQO] | − (a minus sign (−) indicates less than 10% of control) | − (a minus sign (−) Indicates less than 20% of control) | − (a minus sign (−) indicates less than 10% of control)
GPSGPRGQOGAMGFO (GPSGPRGQ[Hyp]GAMGF[Hyp]; not fully specified) [GPS-GFO-11A] | + | + | +
GPSGPRGQOGVAGFO (GPSGPRGQ[Hyp]GVAGF[Hyp]; not fully specified) [GPS-GFO-12A] | (+)/− ((+)/− indicates 20-30% of control) | + | − (a minus sign (−) indicates less than 10% of control)
GPSGPRGQOGVM (GPSGPRGQ[Hyp]GVM; not fully specified) [GPS-GVN] | − (a minus sign (−) indicates less than 10% of control) | − (a minus sign (−) Indicates less than 20% of control) | − (a minus sign (−) indicates less than 10% of control)
GPSGPRGQOGVMGAO (GPSGPRGQ[Hyp]GVMGA[Hyp]; not fully specified) [GPS-GFO-14A] | − (a minus sign (−) indicates less than 10% of control) | − (a minus sign (−) Indicates less than 20% of control) | − (a minus sign (−) indicates less than 10% of control)
GPSGPRGQOGVMGFA (GPSGPRGQ[Hyp]GVMGFA; not fully specified) [GPS-CFO-15A] | +/− ((+/− indicates 30-80% of control) | +/− (+/ − indicates 20-80% of control) | (+)/− ((+)/− indicates 20-30% of control)
GPSGPRGQOGVMGFO [GPS-GFO] | + | + | +
GQOGVMGFO (GQ[Hyp]GVMGF[Hyp]; not fully specified) [GQO-GFO] | +/− ((+/− indicates 30-80% of control) | + | +/− ((+/− indicates 30-80% of control)
GVMGFO (GVMGF[Hyp]; not fully specified) | +/− ((+/− indicates 30-80% of control) | +/− (+/ − indicates 20-80% of control) | +/− ((+/− indicates 30-80% of control)

Second part, led by results:

DDR2 binding (DDR2-Fc or DDR2-Fc2) | DDR2 binding (His-DDR2 or DS2-Fc) | Substance | DDR1 binding (DDR1-Fc or DDR1-Fc2)
+ | + | GAOGEDGROGPOGPQGARGQOGVMGFO (GA[Hyp]GEDGR[Hyp]GP[Hyp]GPQGARGQ[Hyp]GVMGF[Hyp]; not fully specified) [II-22] | +
+ |  | GAOGPLGIAGITGARGLAGPOGMOGPR (GA[Hyp]GPLGIAGITGARGLAGP[Hyp]GM[Hyp]GPR; not fully specified) [III-44] | − (a minus sign (−) indicates less than 10% of control)
+/− ((+/− indicates 30-80% of control) |  | GARGFOGTOGLOGVKGRRGYOGLDGAK [II-5] | − (a minus sign (−) indicates less than 10% of control)
+ |  | GERGLOGPOGIKGPAGIDGFOGMKGHR [III-5] | − (a minus sign (−) indicates less than 10% of control)
+ |  | GLAGRQGIVGLDGQRGERGFOGLOGPS [II-44] | − (a minus sign (−) indicates less than 10% of control)
+ | + | GPOGPSGPRGQOGVMGFOGPKGNDGAO (GP[Hyp]GPSGPRGQ[Hyp]GVMGF[Hyp]GPKGNDGA[Hyp]; not fully specified) [III-23] | +
+ | + | GQOGVMGFOGPKGANGEOGKAGEKGLO (GQ[Hyp]GVMGF[Hyp]GPKGANGE[Hyp]GKAGEKGL[Hyp]; not fully specified) [II-23] | − (a minus sign (−) indicates less than 10% of control)
